Assay results: US11813304B2, “Compounds and methods for inhibiting phosphate transport” (Ardelyx, Inc., priority 2013, dated 2023)

Test system: HEK-293 cells
Experiment: Sodium-dependent 33P phosphate uptake in HEK-293 cells (mock, rat or human NaP2b transfected)
Type: cell-based
Conditions: 5 μM EIPA; cells not pretreated to lower their intracellular pH; 23 min at room temperature
Protocol: Experiments were performed to test the relationship between alterations in intracellular pH and the uptake of phosphate ions (Pi) in human embryonic kidney cells (HEK-293 cells).
HEK-293 cells were seeded into 96-well plates at 25,000 cells/well and cultured overnight. Cells were then transfected with either rat or human NaP2b cDNA, or were mock transfected (no DNA) using Lipofectamine 2000 (Invitrogen). Cells were allowed to approach confluence during a second overnight incubation.
An ammonium pulse procedure was used to reduce the intracellular pH from ˜7.4 to ˜6.8. Medium was aspirated from the wells, cells were washed twice with NaCl-HEPES buffer (100 mM NaCl, 50 mM HEPES, 10 mM glucose, 5 mM KCl, 2 mM CaCl2, 1 mM MgCl2, pH 7.4), then incubated for 30 min at room temperature with NH4Cl-HEPES buffer (20 mM NH4Cl, 80 mM NaCl, 50 mM HEPES, 5 mM KCl, 2 mM CaCl2, 1 mM MgCl2, pH 7.4) containing 5 μM BCECF-AM. […] The reduction in intracellular pH to approximately pH 6.8 was verified by monitoring the pH sensitive changes in BCECF fluorescence (λex 505 nm, λem 538 nm) normalized to the pH insensitive BCECF fluorescence (λex 439 nm, λem 538 nm). […]
Uptake of ^33P was measured in the presence and absence of 5 μM EIPA, a specific inhibitor of NHE1. […] Cells were lysed by addition of 20 μL 0.1% Tween 80 followed by 100 μL scintillation fluid, and counted using a TopCount (Perkin Elmer).

CCN(c1nc(N)c(C(=O)NC(=N)N)nc1Cl)C(C)C [EIPA]
Pi uptake (33P): small yet significant decrease
